The values below come from patent publication US12447163B2, “Liposomal formulations of Bcl inhibitors” (Jazz Pharmaceuticals Therapeutics, Inc., priority 2021, dated 2025).

The data set concerns platelet count. Kind of data set: Platelet count (thrombocytopenia / platelet protection) after administration of liposomal formulations or free drug. To be noted: liposomal formulations at various doses or free drug, FIG. 7F. Type of data set: in vivo, Female B6D2F1/J mice. The procedure:
Female B6D2F1/J mice were purchased from Jackson Laboratory and acclimated 7 days prior to study start. Mice were caged in autoclaved Allentown ventilated caging at a capacity of 3 animals/cage during the course of the experiment. Cages were changed bi-weekly. Environmental enrichment that was supplied for cages were Nestlets from Ancare, transparent tinted polycarbonate Mouse Igloos from Bio-Serv on Envigo 7097¼″ corn cob bedding. All enrichment was added to the cage prior to the cages being autoclaved. Mice were fed Envigo Teklad Global Rodent Diet 2018. The rodent food was kept in the hoppers of the wire lids and was changed bi-weekly. Reverse osmosis water was supplied through Avidity Science automatic watering valves at a flow rate of 25-50 ml/min. Environmental control of the lights and monitoring of temperature, humidity and airflow was done by WatchDog. Light cycles in the animal holding rooms was set for 12 hours on and 12 hours off. Temperature, humidity and airflow were maintained and controlled by BCCRC facilities.
Mice were injected with the required volume to administer the prescribed dose (10 mg/kg) to the animals based on individual mouse weights using a 28 G needle. The injection volume was 200 μL/20 g mouse. The mice were briefly (less than 30 sec.) restrained during i.v. injections. […]

As to `CN(C)CC[C@H](CSc1ccccc1)Nc1ccc(S(=O)(=O)NC(=O)c2ccc(N3CCN(Cc4ccccc4-c4ccc(Cl)cc4)CC3)cc2)cc1[N+](=O)[O-]` [Compound 7], the “tolerability (platelet count)” value was “well tolerated at the tested doses”.
